From US7049302B1, “Compositions of CPG and saponin adjuvants and uses thereof” (Antigenics Inc., priority 1998, dated 2006)

Tests used:
Type in all cases: in vivo, C57BL/6 mice
E.G7-OVA cells [1] = assay: 51Cr release CTL assay, splenocytes of OVA-immunized mice stimulated in vitro with mitomycin C-treated E.G7-OVA cells; settings: 1.25 μg QS-21 alone (suboptimal dose), with 25 μg OVA s.c. days 1, 15, 29; splenocytes day 42; FIG. 1
Method: C57BL/6 mice (5 per group, female, 8–10 weeks of age) were immunized by subcutaneous route at days 1, 15, and 29. The vaccines were 25 μg OVA antigen plus the indicated doses of adjuvant in a total volume of 0.2 ml phosphate-buffered saline. […] They were stimulated in vitro for 6 days with mitomycin C-treated E.G7-OVA cells and then used in a standard ^51Cr release CTL assay. E.G7-OVA cells (loaded with ^51Cr) were used as target cells. The background lysis of EL4 cells (not transfected by OVA) was subtracted from the lysis of E.G7-OVA cells to obtain a percent (%) antigen-specific lysis.

E.G7-OVA cells [2] = assay: 51Cr release CTL assay, splenocytes of OVA-immunized mice stimulated in vitro with denatured OVA; settings: 1.25 μg QS-21 alone (suboptimal dose), with 25 μg OVA, FIG. 2
Method: C57BL/6 mice (5 per group, female, 8–10 weeks of age) were immunized by subcutaneous route at days 1, 15, and 29. The vaccines were 25 μg OVA antigen plus the indicated doses of adjuvant in a total volume of 0.2 ml phosphate-buffered saline. […] (Weiner, et al., Proc. Natl. Acad. Sci. 94:10833 (1997).) Splenocytes were removed at day 42 for use as effector cells in the CTL assay. They were stimulated in vitro for 6 days with mitomycin C-treated E.G7-OVA cells and then used in a standard ^51Cr release CTL assay. E.G7-OVA cells (loaded with ^51Cr) were used as target cells. The background lysis of EL4 cells (not transfected by OVA) was subtracted from the lysis of E.G7-OVA cells to obtain a percent (%) antigen-specific lysis.
Splenocytes from mice immunized as described in FIG. 1 were used in a CTL assay. Splenocytes were stimulated in vitro with denatured OVA for six days prior to use in the CTL assay. The assay was carried out against E.G7-OVA cells as described in Example 1.

OVA = assay: Serum IgG1 and IgG2a titers to OVA by EIA; settings: sera day 42
Method: Serum titers to OVA were determined by EIA on sera collected on day 42 from the mice immunized as described in Example 1. IgG subclass IgG1 and IgG2a titers were determined for individual mice (5 mice per group) and are plotted as a geometric mean titer.

## QS-21
E.G7-OVA cells [1]
  antigen-specific lysis (CTL): no lysis
E.G7-OVA cells [2]
  antigen-specific lysis (CTL): no lysis
OVA; 10 μg QS-21 alone, geometric mean titer, among the highest groups, FIG. 3
  OVA-specific IgG1 titer, enhancement over the unadjuvanted group: ~10 fold
OVA; any QS-21 dose used alone
  OVA-specific IgG2a response: not detected
